In this experiment the test system is U-87 cells. The experiment is described as follows: Drug screening of FDA-approved compound library, cell viability by ATP levels (ATPLite). Type of experiment: cell-based, human. Conditions: FGFJI medium. How it is done: A library of 1,600 FDA-approved compounds was screened on U-87 cells cultured in the improved conditions. Each drug was screened at both 3 micromolar and 10 micromolar concentrations. Cell viability was assessed by measuring ATP levels.
Drugs that opposed cell viability were further investigated. These drugs were re-screened under the more common cell culture conditions (in serum-supplemented RMPI medium, where cells are more differentiated). Some drugs were identified that also opposed growth under the more differentiated conditions. We also identified some drugs that only opposed growth in the improved conditions. It was focused on the latter drugs only as being the target compounds of the present invention.
White Corning 384 well plates (Cat #3570) were coated with 40 ul of […] polyornithine (Sigma, #P-365) at 370C overnight. The next day the plates were washed 5 times with water using a BioTek EL 406 plate washer. The plates were then coated with 40 ul of 1 mg/ml fibronectin (R&D Systems, #1030-Fn) for 2 hours at 370C and then washed 2 times with PBS. Either 15nl or 50nl of either 10 mM library compounds (MicroSource Pharmakon library) or 100% DMSO as negative control or 1 mM Staurosporine (ACROS #328532500) were dispensed with a Labcyte Echo 550 to screen the library at 3u M and 10 μM respectively. U87 cells were seeded in the plates with a WellMate drop dispenser (ThermoFischer) at a density of 3000 cells per well in 50 μl N2 medium and incubated for 20 hours at 37 °C in 5% C02. Cell viability was assayed using Perkin Elmer ATPLite (Cat 6016731) according to vendor's instructions. For the dose dependent verification assay, cells were seeded in N2 medium with or without serum to test the specificity of compound action.
A library of 1,600 FDA-approved compounds was screened at two different concentrations (10 μM and 3 μM) on U-87 cells cultured in FGFJI (FIG. 8).

Setting [1] is: 10 μM, second value of the cell.

Turning to `Oc1c(Cl)cc(Cl)cc1Sc1cc(Cl)cc(Cl)c1O.[Na+]` [BITHIONATE Na, sodium 2,4-dichloro-6-(3,5-dichloro-2-hydroxyphenyl)sulfanylphenol], the “ATP assay score (3 μM, 10 μM)” value is on record as −11 (3 μM, first value of the cell) and −10 under setting [1].
Consider `Oc1c(Br)cc(Br)c2cccnc12` [BROXYQUINOLINE, 5,7-dibromoquinolin-8-ol], for which the “ATP assay score (3 μM, 10 μM)” value reads like this: (3 μM, first value of the cell) −11; under setting [1], −8.
For `Oc1c(I)cc(Cl)c2cccnc12` [CLIOQUINOL, 5-chloro-7-iodoquinolin-8-ol], the “ATP assay score (3 μM, 10 μM)” value is, setting by setting: (3 μM, first value of the cell) −11; under setting [1], −7.
For `CC(C)(C)CC(C)(C)c1ccc(O)c(Cc2ccc(Cl)cc2Cl)c1` [CLOFOCTOL, 2-[(2,4-dichlorophenyl)methyl]-4-(2,4,4-trimethylpentan-2-yl)phenol], the “ATP assay score (3 μM, 10 μM)” value by setting is: (3 μM, first value of the cell) −11; under setting [1], −5.
The like results for `CC[C@@H](C(=O)[C@@H](C)[C@@H](O)[C@H](C)CCc1ccc(C)c(O)c1C(=O)[O-])[C@H]1O[C@](CC)([C@H]2CC[C@](O)(CC)[C@H](C)O2)C[C@@H]1C.[Na+]` [LASALOCID Na, sodium 6-[(3R,4S,5S,7R)-7-[(2S,3S,5S)-5-ethyl-5-[(2R,5R,6S)-5-ethyl-5-hydroxy-6-methyloxan-2-yl]-3-methyloxolan-2-yl]-4-hydroxy-3,5-dimethyl-6-oxononyl]-2-hydroxy-3-methylbenzoate] were, in that order, −10 and −5.
Consider `Oc1cc(Cl)ccc1Oc1ccc(Cl)cc1Cl` [TRICLOSAN, 5-chloro-2-(2,4-dichlorophenoxy)phenol], for which the “ATP assay score (3 μM, 10 μM)” value was −7 (3 μM, first value of the cell) and −5 under setting [1].

The values above are taken from patent US12590963B2, “Anti-cancer treatment of preselected subjects and screening methods to identify susceptible subjects” (TUDAG TU Dresden Aktiengesellschaft, priority 2018, dated 2026).
